The test system of test [1] is human breast-cancer cells, MDA-MB-231. Put plainly: In vitro Taxol add-on study (MTT), MDA-MB-231. As to conditions: Homo sapiens, 0.0017 μg/ml Taxol + formula 2. It counts as cell-based. The protocol: The experiment was also carried out according to NCI anti-cancer drug screen in vitro model. The human breast-cancer cells, MCF-7 and MDA-MB-231 were separately cultivated in media containing fetal calf serum for 24 hours. The proliferated cells were washed once with PBS, then treated with 1× trypsin-EDTA and centrifuged at 1200 rpm for 5 minutes. The supernatant was discarded and the cell pellet was resuspended in 10 ml of fresh culture medium by gently shaking. The cells were placed in a 96-well plate after 0.0017 μg/ml Taxol was added and treated for 72 hours. 4-hydroxy-2,3-dimethoxy-6-methyl-5(3,7,11-trimethyl-dodeca-2,6,10-trienyl)-cyclohex-2-enone obtained from example 1 were added respectively into each of the 96 wells at the following concentrations: 0 μg/ml (the control group); 30, 10, 3, 1, 0.3, 0.1 and 0.03 μg/ml (the experiment group). The cells were incubated at 37° C. in a 5% CO2 incubator for 48 hours. MTT was added in a concentration of 2.5 mg/ml into each well in dark and reacted for 4 hours, followed by the addition of 100 μl of lysis buffer to terminate the reaction. The plates were read on an ELISA reader at wavelength of 570 nm to determine the survival rates.

Test [2] concerns human hepatic-cancer cells, Hep 3B. As to the kind of experiment: In vitro survival assay (MTT), hepatic cancer cells Hep 3B. It counts as cell-based. The following applies: Hep3B, 48 hours incubation. The protocol:
The NCI anti-cancer drug screen model was also adopted to test the anti-cancer effect of the compound isolated from example 1 in the present invention. The isolated compound of 4-hydroxy-2,3-dimethoxy-6-methyl-5(3,7,11-trimethyl-dodeca-2,6,10-trienyl)-cyclohex-2-enone from example 1 was added into the culture media of human hepatic-cancer cells, Hep 3B or Hep G2, for tumor cell survival assay.
(§1) The human hepatic-cancer cells, Hep 3B and Hep G2, were separately cultivated in media containing fetal calf serum for 24 hours. The proliferated cells were washed once with PBS, then treated with 1× trypsin-EDTA and centrifuged at 1200 rpm for 5 minutes. The supernatant was discarded and the cell pellet was resuspended in 10 ml of fresh culture medium by gently shaking. The cells were placed in a 96-well plate. Ethanol extracts of Antrodia camphorata (the control group, total extracts of Antrodia camphorata without purification) were added into each of the 96 wells at the following concentrations: 30, 10, 3, 1, 0.3, 0.1 and 0.03 μg/ml, respectively, while 4-hydroxy-2,3-dimethoxy-6-methyl-5(3,7,11-trimethyl-dodeca-2,6,10-trienyl)-cyclohex-2-enone (the experiment group) were added into each of the 96 wells at the following concentrations: 30, 10, 3, 1, 0.3, 0.1 and 0.03 μg/ml, respectively. […] The plates were read on an ELISA reader at wavelength of 570 nm to determine the survival rates.

Test [3] deals with human prostate cancer cells, LNCaP. Put plainly: In vitro survival assay (MTT), prostate cancer cells LNCaP. The test is classed as cell-based. As to conditions: 48 hours incubation. On the procedure: (§2) The NCI anti-cancer drug screen model was also adopted to test the anti-cancer effect of the compound isolated from example 1 in the present invention. The isolated compound of 4-hydroxy-2,3-dimethoxy-6-methyl-5(3,7,11-trimethyl-dodeca-2,6,10-trienyl)-cyclohex-2-enone from example 1 was added into the culture media of human prostate cancer cells, LNCaP or DU-145, for tumor cell survival assay.
as §1, with “LNCaP” for “Hep 3B”, “DU-145,” for “Hep G2,”, “or” for “were added into each of the 96 wells at the following concentrations: 30, 10, 3, 1, 0.3, 0.1 and 0.03 μg/ml, respectively, while”, “respectively. The cells were incubated at 37° C. in a 5% CO2 incubator for 48 hours.” for “respectively.”

Test [4] concerns human prostate cancer cells, DU-145. As to the kind of experiment: In vitro survival assay (MTT), prostate cancer cells DU-145. The test is classed as cell-based. As to conditions: 48 hours incubation. On the procedure: as §2
as §1, with “LNCaP” for “Hep 3B”, “DU-145,” for “Hep G2,”, “or” for “were added into each of the 96 wells at the following concentrations: 30, 10, 3, 1, 0.3, 0.1 and 0.03 μg/ml, respectively, while”, “respectively. The cells were incubated at 37° C. in a 5% CO2 incubator for 48 hours.” for “respectively.”

In test [5] the test system is Human low density lipoprotein (LDL). Put plainly: In vitro antioxidant activity study (Cu2+-induced LDL oxidation, diene formation). As to conditions: 40 μg/mL formula 2; for Capacity values: capacity value 1 = 2 μM Trolox, antioxidant ability when larger than 0.5. The test is classed as biochemical. On the procedure: Human low density lipoprotein (LDL) oxidated with copper ion (Cu^2+) has been widely employed to assess antioxidant activities of samples to be assayed. Antioxidant activity of a sample is determined by the diene contents of LDL after oxidation and expressed in Trolox equivalents by using a standard curve calculated from the water-soluble vitamin E analogue Trolox standards (the antioxidant capacity value of 1 is expressed in terms of 2 μM of Trolox).
The following solutions were prepared firstly: double distilled water (the negative control group), 5 mM sodium phosphate buffer (SPB), 1 μM and 2 μM Trolox solution (the positive control group), and 40 μg/ml 4-hydroxy-2,3-dimethoxy-6-methyl-5(3,7,11-trimethyl-dodeca-2,6,10-trienyl)-cyclohex-2-enone isolated from example 1. The concentration of LDL cholesterol (LDL-C) was determined using enzyme reaction method, which was diluted to 0.1-0.25 mg/ml with 5 mM SPB. One hundred μl of the LDL was added into each well of a 96-well quartz plate, followed by addition of the abovementioned Trolox and the isolated compound from example 1. Standardized oxidizing agent CuSO4 was supplemented to induce oxidation at a final concentration of 5 μM in each 250 μl well. The plate was read on an ELISA reader at wavelength of 232 nm at 37 °C for 12 hours. The sampling time was 15 min.

The structures appear in SMILES notation.

Regarding `COC1=C(OC)C(O)C(C/C=C(\C)CC/C=C(\C)CCC=C(C)C)C(C)C1=O` (centres unmarked) [formula 2, 4-hydroxy-2,3-dimethoxy-6-methyl-5(3,7,11-trimethyl-dodeca-2,6,10-trienyl)-cyclohex-2-enone], the IC50 (in general, the concentration needed to halve the response being measured) in test [1] is 0.011 µg/mL; in test [2], 0.005 µg/mL; in test [3], 2.38 µg/mL; in test [4], 1.81 µg/mL. Moreover, in test [5] (LDL oxidised with 5 μM CuSO4), the “Tlag” value was found to be 439 min. The Capacity values in test [5] is 1.30; in test [5] (listed as 4-hydroxy-2,3-dimethoxy-6-methyl-5(3,7,11-trimethyl-dodeca-2,6,10-trienyl)-cyclo) it was 1.3. For the same molecule, the “ΔTlag” value in test [5] (difference between Tlag and Tlag0 (H2O)) is recorded as 208 min.

The values are drawn from patent US7342137B1, “Cyclohexenone compounds from Antrodia camphorata and application thereof” (Golden Biotechnology Corporation, priority 2007, dated 2008).
